Measurements reported in ChEMBL document CHEMBL5214948, “Boronic Acid: A Novel Pharmacophore Targeting Src Homology 2 (SH2) Domain of STAT3” (J Med Chem, 2022).

Assays:
AGS = assay: Antiproliferative activity against human AGS cells assessed as reduction in cell viability incubated for 72 hrs by CCK-8 assay; type: functional, cell-based
MGC-803 = assay: Antiproliferative activity against human MGC-803 cells assessed as reduction in cell viability measured after 72 hrs by CCK-8 assay; type: functional, cell-based; details: MGC-803, 72 h

IC50 (AGS): 1.98 µM | IC50 (MGC-803): 4.83 µM
SMILES: O=C([C@H]1CCN1S(=O)(=O)c1c(F)c(F)c(F)c(F)c1F)N(Cc1ccc(C2CCCCC2)cc1)c1ccc(B(O)O)cc1
